In patent US20230240290A1, “USE OF (Z)-3-HEXENYL ESTERS AND METHOD FOR PROTECTING PLANTS AGAINST PESTS” (UNIVERSITAT POLITÈCNICA DE VALÈNCIA, priority 2020, published 2023):

Legend:
jasmonic acid pathway = conditions: corn exposed to the volatile; Engelberth et al. 2004; cited from earlier work
Bemisia tabaci = conditions: Pérez-Hedo et al. Biocontrol 2018; cited from earlier work
Encarsia formosa = conditions: Pérez-Hedo et al. Biocontrol 2018; cited from earlier work
T. absoluta = conditions: Pérez-Hedo et al. Biocontrol 2018; cited from earlier work
[1] = tested on: PR1 (marker gene for the salicylic acid signaling pathway); assay: Transcriptional response of defense gene PR1 in tomato plants exposed to volatiles (laboratory); format: in vivo, Solanum lycopersicum cv. Moneymaker; conditions: intact tomato plants exposed 24 h; filter paper, 1:10,000 ester:methanol; n=8
Method: (§1) Moneymaker tomato plants were used. Two weeks after seed germination, the seedlings were individually transplanted into pots (8×8×8 cm). The plants were kept at 25±2° C., with a constant relative humidity of 65%±5% and a 14:10 h (light:dark) photoperiod. Tomato plants that had not received any pesticide treatment at four weeks of age (about 20 cm tall) were used. All volatiles used were obtained from Sigma-Aldrich (St. Louis, Mo., USA). Each volatile was exposed by using a 2×2 cm piece of filter paper on which 10 μl of a solution containing the corresponding volatile at a concentration of 1:10,000 [(Z)-3-hexenyl ester:methanol] was impregnated as an emitting source of the corresponding volatile (Pérez-Hedo, M. et al. Biocontrol, 63: 203-213 (2018)).
(§2) To activate a plant, two pieces of filter paper impregnated with the volatile were placed at the bottom of a 30×30×30 cm plastic cage (BugDorm-1 Insect Tents; MegaView Science Co., Ltd, Taichung, Taiwan) into which the plant was introduced. A control treatment was carried out in which the two pieces of filter paper were impregnated with 10 μl of methanol. Eight repetitions per treatment were performed. The plants of the treatments were kept exposed to the volatile without disturbing for 24 hours in separate and isolated climatic chambers to avoid any interference from the volatiles and were kept at 25±2° C., 65±10% RH, and a 14:10 h (L:D) photoperiod. […]
(§3) The methodology followed for extracting and quantifying gene expression was described by Pérez-Hedo et al. Journal of Pest Science 3: 543-554 (2015). The primers used were forward primer: 5′-[…]-3′ (SEQ ID NO: 1) and reverse primer: 5′-[…]-3′ (SEQ ID NO: 2) for the quantification of PR1, forward primer: 5′-[…]-3′ (SEQ ID NO: 3) and reverse primer: 5′-[…]-3′ (SEQ ID NO: 4) for SI-PI-I, and forward primer: 5′-[…]-3′ (SEQ ID NO: 5) and reverse primer: 5′-[…]-3′ (SEQ ID NO: 6) for the SI-PI-II gene. […]

[2] = tested on: SI-PI-I (marker for plant proteinase inhibitors); assay: Transcriptional response of SI-PI-I in tomato plants exposed to volatiles (laboratory); format: in vivo, Solanum lycopersicum cv. Moneymaker; conditions: intact tomato plants exposed 24 h; filter paper, 1:10,000 ester:methanol; n=8
Method: as §1, §2, §3

[3] = tested on: SI-PI-II (marker for plant proteinase inhibitors); assay: Transcriptional response of SI-PI-II in tomato plants exposed to volatiles (laboratory); format: in vivo, Solanum lycopersicum cv. Moneymaker; conditions: intact tomato plants exposed 24 h; filter paper, 1:10,000 ester:methanol; n=8
Method: as §1, §2, §3

Row | Structure (SMILES) | Jasmonic acid pathway expression (jasmonic acid pathway) | Transcriptional response of PR1 compared to the control [1] | Transcriptional response of SI-PI-I compared to the control [2] | Transcriptional response of SI-PI-II compared to the control [3] | further results
1 | CC/C=C\CC=O [(Z)-3-hexenal] | overexpress |  |  |  | 
2 | COC(=O)c1ccccc1O [methyl salicylate] |  |  |  |  | Effect of the volatile on B. tabaci (Bemisia tabaci): repellent; Effect of the volatile on E. formosa (Encarsia formosa): attractive; Effect of the volatile on T. absoluta (T. absoluta): no effect
3 | CC/C=C\CCOC(=O)CCC [(Z)-3-hexenyl butanoate] |  | significantly overexpressed | significantly overexpressed | significantly overexpressed | 
4 | CC/C=C\CCO [(Z)-3-hexen-1-ol] | overexpress |  |  |  | 
5 | CC/C=C\CCOC(C)=O [(Z)-3-hexenyl acetate] | overexpress | significantly overexpressed | significantly overexpressed | significantly overexpressed | 
